Source: US9115152B2, “Alkylated piperazine compounds” (Genentech, Inc., priority 2011, dated 2015)

These compounds were tested on production of CD69 by B lymphocytes in human whole blood (assay: CD69 Whole Blood Assay (CD69 Hu Blood FACS)). Conditions: Lymphocyte, stimulated with goat F(ab')2 anti-human IgM, 20 hours, CD69 positive of CD20 positive cells.
Type: cell-based
Source text: A CD69 Whole Blood Assay can be conducted on Formula I compounds to determine the ability of compounds to inhibit the production of CD69 by B lymphocytes in human whole blood activated by crosslinking surface IgM with goat F(ab′)2 anti-human IgM (Example 907). CD69 is a type II C-type lectin involved in lymphocyte migration and cytokine secretion. CD69 expression represents one of the earliest available indicators of leukocyte activation and its rapid induction occurs through transcriptional activation (Vazquez et al (2009) Jour. of Immunology Published Oct. 19, 2009, doi:10.4049/jimmunol.0900839). Concentration-dependent inhibition of antigen receptor stimulation by selective Btk inhibitors induces cell surface expression of the lymphocyte activation marker CD69 (Honigberg et al (2010) Proc. Natl. Acad. Sci. 107(29):13075-13080). Thus, CD69 inhibition by selective Btk inhibitors may be correlated with therapeutic efficacy of certain B-cell disorders.
Human blood is obtained from healthy volunteers, with the following restrictions: 1 week drug-free, non-smokers. Blood (approximately 20 mls to test 8 compounds) is collected by venipuncture into Vacutainer® (Becton, Dickinson and Co.) tubes with sodium heparin.
Solutions of Formula I compounds at 10 mM in DMSO are diluted 1:10 in 100% DMSO, then are diluted by three-fold serial dilutions in 100% DMSO for a ten point dose-response curve. The compounds are further diluted 1:10 in PBS and then an aliquot of 5.5 μl of each compound is added in duplicate to a 2 ml 96-well plate; 5.5 μl of 10% DMSO in PBS is added as control and no-stimulus wells. Human whole blood—HWB (100 μl) is added to each well. After mixing the plates are incubated at 37° C., 5% CO2, 100% humidity for 30 minutes. Goat F(ab′)2 anti-human IgM (10 μl of a 500 μg/ml solution, 50 μg/ml final) is added to each well (except the no-stimulus wells) with mixing and the plates are incubated for an additional 20 hours. At the end of the 20 hour incubation, samples are incubated with fluorescent labeled antibodies for 30 minutes, at 37° C., 5% CO2, 100% humidity. Include induced control, unstained and single stains for compensation adjustments and initial voltage settings. Samples are then lysed with PharM Lyse™ (BD Biosciences Pharmingen) according to the manufacturer's instructions. Samples are then transferred to a 96 well plate suitable to be run on the BD Biosciences HTS 96 well system on the LSRII machine. Data acquired and Mean Fluorescence Intensity values were obtained using BD Biosciences DIVA Software. Results are initially analyzed by FACS analysis software (Flow Jo).

Going from `C[C@H]1CN(C2COC2)CCN1c1ccc(Nc2cc(-c3cc(F)cc(N4CCc5c(cc6n5CCCC6)C4=O)c3CO)cn(C)c2=O)nc1` [Compound 101, (S)-2-(5-fluoro-2-(hydroxymethyl)-3-(1-methyl-5-(5-(2-methyl-4-(oxetan-3-yl)piperazin-1-yl)pyridin-2-ylamino)-6-oxo-1,6-dihydropyridin-3-yl)phenyl)-3,4,6,7,8,9-hexahydropyrido[3,4-b]indolizin-1(2H)-one] to `C[C@H]1CN(C2COC2)CCN1c1ccc(Nc2cc(-c3cc(F)cc(N4CCn5c(cc6c5CCCC6)C4=O)c3CO)cn(C)c2=O)nc1` [Compound 106, (S)-2-(5-fluoro-2-(hydroxymethyl)-3-(1-methyl-5-(5-(2-methyl-4-(oxetan-3-yl)piperazin-1-yl)pyridin-2-ylamino)-6-oxo-1,6-dihydropyridin-3-yl)phenyl)-3,4,6,7,8,9-hexahydropyrazino[1,2-a]indol-1(2H)-one], the IC70 falls from 33.8 nM to 19 nM (1.8-fold).

Going from `C[C@H]1CN(C2COC2)CCN1c1ccc(Nc2cc(-c3cc(F)cc(-n4ncc5c6c(sc5c4=O)CCCC6)c3CO)cn(C)c2=O)nc1` [Compound 102, (S)-5-[5-fluoro-2-(hydroxymethyl)-3(1-methyl-5-(5-(2-methyl-4-(oxetan-3-yl)piperazin-1-yl)pyridin-2-ylamino)-6-oxo-1,6-dihydropyridin-3-yl)phenyl]-8-thia-4,5-diazatricyclo[7.4.0.02,7]trideca-1(9),2(7),3-trien-6-one] to `CC[C@H]1CN(C2COC2)CCN1c1ccc(Nc2cc(-c3cc(F)cc(N4CCn5c(cc6c5CCCC6)C4=O)c3CO)cn(C)c2=O)nc1` [Compound 105], the IC70 falls from 31 nM to 8 nM (3.9-fold).

Going from `C[C@@H]1CN(c2ccc(Nc3cc(-c4cc(F)cc(N5CCn6c(cc7c6CCCC7)C5=O)c4CO)cn(C)c3=O)nc2)CCN1C` [Compound 108, (R)-2-(3-(5-(5-(3,4-dimethylpiperazin-1-yl)pyridin-2-ylamino)-1-methyl-6-oxo-1,6-dihydropyridin-3-yl)-5-fluoro-2-(hydroxymethyl)phenyl)-3,4,6,7,8,9-hexahydropyrazino[1,2-a]indol-1(2H)-one] to `C[C@H]1CN(c2ccc(Nc3cc(-c4cc(F)cc(N5CCn6c(cc7c6CCCC7)C5=O)c4CO)cn(C)c3=O)nc2)CCN1C` [Compound 107, (S)-2-(3-(5-(5-(3,4-dimethylpiperazin-1-yl)pyridin-2-ylamino)-1-methyl-6-oxo-1,6-dihydropyridin-3-yl)-5-fluoro-2-(hydroxymethyl)phenyl)-3,4,6,7,8,9-hexahydropyrazino[1,2-a]indol-1(2H)-one], the IC70 rises from 23 nM to 44 nM (1.9-fold).

Compared with `CN1C2COCC1CN(c1ccc(Nc3cc(-c4cc(F)cc(N5CCn6c(cc7c6CCCC7)C5=O)c4CO)cn(C)c3=O)nc1)C2` [Compound 112, 2-(5-fluoro-2-(hydroxymethyl)-3-(1-methyl-5-(5-(9-methyl-7-oxa-3,9-diaza-bicyclo[3.3.1]nonan-3-yl)pyridin-2-ylamino)-6-oxo-1,6-dihydropyridin-3-yl)phenyl)-3,4,6,7,8,9-hexahydropyrazino[1,2-a]indol-1(2H)-one], `C[C@@H]1CN(c2ccc(Nc3cc(-c4cc(F)cc(N5CCn6c(cc7c6CCCC7)C5=O)c4CO)cn(C)c3=O)nc2)[C@@H](C)CN1C1COC1` [Compound 104, 2-(3-(5-(5-((2S,5R)-2,5-dimethyl-4-(oxetan-3-yl)piperazin-1-yl)pyridin-2-ylamino)-1-methyl-6-oxo-1,6-dihydropyridin-3-yl)-5-fluoro-2-(hydroxymethyl)phenyl)-3,4,6,7,8,9-hexahydropyrazino[1,2-a]indol-1(2H)-one] is 11-fold lower in IC70: 170 nM for the first, 15 nM for the second.

First: C[C@@H]1CN(C)CCN1c1ccc(Nc2cc(-c3cc(F)cc(N4CCn5c(cc6c5CCCC6)C4=O)c3CO)cn(C)c2=O)nc1 [Compound 109, (R)-2-(3-(5-(5-(2,4-dimethylpiperazin-1-yl)pyridin-2-ylamino)-1-methyl-6-oxo-1,6-dihydropyridin-3-yl)-5-fluoro-2-(hydroxymethyl)phenyl)-3,4,6,7,8,9-hexahydropyrazino[1,2-a]indol-1(2H)-one]
Second: C[C@H]1CN(C)CCN1c1ccc(Nc2cc(-c3cc(F)cc(N4CCn5c(cc6c5CCCC6)C4=O)c3CO)cn(C)c2=O)nc1 [Compound 110, (S)-2-(3-(5-(5-(2,4-dimethylpiperazin-1-yl)pyridin-2-ylamino)-1-methyl-6-oxo-1,6-dihydropyridin-3-yl)-5-fluoro-2-(hydroxymethyl)phenyl)-3,4,6,7,8,9-hexahydropyrazino[1,2-a]indol-1(2H)-one]
The IC70 of the first is 4.8-fold higher: 29 nM for the first, 6 nM for the second.

First: CN1CCN(c2ccc(Nc3cc(-c4cc(F)cc(N5CCn6c(cc7c6CCCC7)C5=O)c4CO)cn(C)c3=O)nc2)CC1CF (stereo not drawn) [Compound 111, 2-(5-fluoro-3-(5-(5-(3-(fluoromethyl)-4-methylpiperazin-1-yl)pyridin-2-ylamino)-1-methyl-6-oxo-1,6-dihydropyridin-3-yl)-2-(hydroxymethyl)phenyl)-3,4,6,7,8,9-hexahydropyrazino[1,2-a]indol-1(2H)-one]
Second: C[C@H]1CN(C2COC2)CCN1c1ccc(Nc2cc(-c3cc(F)cc(N4CCn5c(cc6c5CC(C)(C)C6)C4=O)c3CO)cn(C)c2=O)nc1 [Compound 103, (2S)-10-[5-fluoro-2-(hydroxymethyl)-3-[1-methyl-5-({5-[2-methyl-4-(oxetan-3-yl)piperazin-1-yl]pyridine-2-yl}amino)-6-oxo-1,6-dihydropyridin-3-yl]phenyl]-4,4-dimethyl-1,10-diazatricyclo[6.4.0.02,6]dodeca-2(6),7-dien-9-one]
The IC70 of the first is 6.3-fold higher: 92 nM for the first, 14.5 nM for the second.

Same assay, conditions: stimulated with goat F(ab')2 anti-human IgM, 20 hours, CD69 positive of CD20 positive cells, Table 2, unit inferred

`C[C@H]1CN(C2COC2)CCN1c1ccc(Nc2cc(-c3cc(F)cc(-n4ncc5c6c(sc5c4=O)CC(C)(C)C6)c3CO)cn(C)c2=O)nc1` [Compound 131, 3-[5-fluoro-2-(hydroxymethyl)-3-[1-methyl-5-[[5-[(2S)-2-methyl-4-(oxetan-3-yl)piperazin-1-yl]-2-pyridyl]amino]-6-oxo-3-pyridyl]phenyl]-7,7-dimethyl-6,8-dihydrocyclopenta[3,4]thieno[1,3-d]pyridazin-4-one] and `C[C@H]1CN(C2COC2)CCN1c1ccc(Nc2cc(-c3cccc(-n4ncc5c6c(sc5c4=O)CCCC6)c3CO)cn(C)c2=O)nc1` [Compound 130, 3-[2-(hydroxymethyl)-3-[1-methyl-5-[[5-[(2S)-2-methyl-4-(oxetan-3-yl)piperazin-1-yl]-2-pyridyl]amino]-6-oxo-3-pyridyl]phenyl]-6,7,8,9-tetrahydrobenzothiopheno[2,3-d]pyridazin-4-one] are within 1.5-fold of each other in CD69 Hu Blood FACS (IC70): 34.9 nM for the first, 35.4 nM for the second.

Going from `CNC(=O)c1c(-c2cc(Nc3ccc(N4CCN(C5COC5)C[C@@H]4C)cn3)c(=O)n(C)c2)cc(F)cc1N1CCn2c(cc3c2CC(C)(C)C3)C1=O` [Compound 129, 2-(7,7-dimethyl-4-oxo-1,2,6,8-tetrahydrocyclopenta[3,4]pyrrolo[3,5-b]pyrazin-3-yl)-4-fluoro-N-methyl-6-[1-methyl-5-[[5-[(2S)-2-methyl-4-(oxetan-3-yl)piperazin-1-yl]-2-pyridyl]amino]-6-oxo-3-pyridyl]benzamide] to `C[C@H]1CN(C2COC2)CCN1c1ccc(Nc2cc(-c3cc(F)cc(N4CCn5c(cc6c5CC(C)(C)C6)C4=O)c3C(=O)O)cn(C)c2=O)nc1` [Compound 128, 2-(7,7-dimethyl-4-oxo-1,2,6,8-tetrahydrocyclopenta[3,4]pyrrolo[3,5-b]pyrazin-3-yl)-4-fluoro-6-[1-methyl-5-[[5-[(2S)-2-methyl-4-(oxetan-3-yl)piperazin-1-yl]-2-pyridyl]amino]-6-oxo-3-pyridyl]benzoic acid], the CD69 Hu Blood FACS (IC70) rises from 472 nM to 5000 nM (11-fold).

`C[C@@H]1CN(c2ccc(Nc3cc(-c4cc(F)cc(N5CCc6c(cc7n6CCCC7)C5=O)c4CO)cn(C)c3=O)nc2)[C@@H](C)CN1C1COC1` [Compound 126, 2-[3-[5-[[5-[(2S,5R)-2,5-dimethyl-4-(oxetan-3-yl)piperazin-1-yl]-2-pyridyl]amino]-1-methyl-6-oxo-3-pyridyl]-5-fluoro-2-(hydroxymethyl)phenyl]-3,4,6,7,8,9-hexahydropyrido[3,4-b]indolizin-1-one] and `C[C@H]1CN(C2COC2)CCN1c1ccc(Nc2cc(-c3cc(F)cc(-n4ncc5c(cc6n5CCCC6)c4=O)c3CO)cn(C)c2=O)nc1` [Compound 127, 2-[5-fluoro-2-(hydroxymethyl)-3-[1-methyl-5-[[5-[(2S)-2-methyl-4-(oxetan-3-yl)piperazin-1-yl]-2-pyridyl]amino]-6-oxo-3-pyridyl]phenyl]-6,7,8,9-tetrahydropyridazino[4,5-b]indolizin-1-one] are within 1.5-fold of each other in CD69 Hu Blood FACS (IC70): 57.1 nM for the first, 51 nM for the second.
